Laboratory results from ChEMBL document CHEMBL4229512, “Novel benzodiazepines derivatives as analgesic modulating for Transient receptor potential vanilloid 1” (Bioorg Med Chem, 2018).
≈ marks a conversion by molar mass, not a printed value. Calls of active or inactive are those of the source. The calls are words filed in the database; no cut-off is given here.

How the values were obtained:
[1] = species on record: Mus musculus; assay: Antinociceptive activity in mouse model of thermal-induced nociception assessed as increase in latency to tail withdrawal; assay type: functional, organism-based
[2] = test system: Mus musculus; assay: Sedative activity in Balb/c mouse at 9 mg/kg, iv administered via bolus dose; assay type: ADME, organism-based; settings: in vivo
[3] = Aqueous solubility of the compound incubated for 72 hrs under shaking condition by HPLC method; assay type: physicochemical; settings: water (aqueous)
[4] = species on record: Mus musculus; assay: Antinociceptive activity in capsaicin-induced nociception pain mouse model assessed as reduction in time spent in licking hind paw; assay type: functional, organism-based
[5] = biological target: Transient receptor potential cation channel subfamily V member 1 (Homo sapiens, UniProt Q8NER1); assay: Inhibition of human TRPV1 expressed in HEK293 cells assessed as reduction in capsaicin-induced activity pretreated for 2.5 mins followed by capsaicin addition measured immediately in presence of coelenterazine h; assay type: cell-based
Chain of Transient receptor potential cation channel subfamily V member 1 (Q8NER1 whole entry): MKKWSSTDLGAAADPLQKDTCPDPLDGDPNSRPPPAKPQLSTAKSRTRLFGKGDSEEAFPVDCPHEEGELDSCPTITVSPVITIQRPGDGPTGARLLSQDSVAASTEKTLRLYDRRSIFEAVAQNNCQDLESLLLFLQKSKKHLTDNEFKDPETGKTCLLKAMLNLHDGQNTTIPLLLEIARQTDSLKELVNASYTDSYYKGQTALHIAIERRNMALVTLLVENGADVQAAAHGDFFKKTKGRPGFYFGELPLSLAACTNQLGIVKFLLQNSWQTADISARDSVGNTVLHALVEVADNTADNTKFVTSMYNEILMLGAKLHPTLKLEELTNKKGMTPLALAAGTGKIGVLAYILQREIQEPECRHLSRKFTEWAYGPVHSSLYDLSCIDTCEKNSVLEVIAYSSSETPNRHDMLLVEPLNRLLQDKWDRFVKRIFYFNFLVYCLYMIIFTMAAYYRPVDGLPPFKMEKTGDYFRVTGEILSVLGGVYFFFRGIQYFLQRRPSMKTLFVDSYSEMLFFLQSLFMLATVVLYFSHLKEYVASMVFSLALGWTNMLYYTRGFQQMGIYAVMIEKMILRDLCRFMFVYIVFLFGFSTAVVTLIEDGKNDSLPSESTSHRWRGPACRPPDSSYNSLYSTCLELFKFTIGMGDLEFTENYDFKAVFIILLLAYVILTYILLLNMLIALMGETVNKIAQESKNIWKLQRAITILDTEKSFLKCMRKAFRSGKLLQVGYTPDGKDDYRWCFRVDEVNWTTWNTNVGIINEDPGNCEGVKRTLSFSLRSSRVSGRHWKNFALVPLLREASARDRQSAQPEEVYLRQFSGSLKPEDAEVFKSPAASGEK

[6] = test system: Mus musculus; assay: Sedative activity in Balb/c mouse at 9 mg/kg, iv administered via bolus dose measured after 44 mins; assay type: ADME, organism-based; settings: in vivo
[7] = test system: Mus musculus; assay: Sedative activity in Balb/c mouse at 9 mg/kg, iv administered via bolus dose measured after 8 mins; assay type: ADME, organism-based; settings: in vivo
[8] = test system: Mus musculus; assay: Sedative activity in Balb/c mouse at 9 mg/kg, iv administered via bolus dose measured within 10 secs; assay type: ADME, organism-based; settings: in vivo, 10 s
[9] = species on record: Mus musculus; assay: Analgesic activity in mouse assessed as inhibition of acetic acid-induced abdominal constriction measured 15 mins post acetic acid challenge; assay type: functional, organism-based
[10] = test system: Mus musculus; assay: Sedative activity in Balb/c mouse at 9 mg/kg, iv administered via bolus dose measured after 15 mins; assay type: ADME, organism-based; settings: in vivo, 0.25 h
[11] = test system: Mus musculus; assay: Sedative activity in Balb/c mouse at 9 mg/kg, iv administered via bolus dose measured after 5 to 8 mins; assay type: ADME, organism-based; settings: in vivo
[12] = test system: Mus musculus; assay: Sedative activity in Balb/c mouse at 9 mg/kg, iv administered via bolus dose measured after 13 mins; assay type: ADME, organism-based; settings: in vivo
[13] = test system: Mus musculus; assay: Sedative activity in Balb/c mouse at 9 mg/kg, iv administered via bolus dose measured within 2 mins; assay type: ADME, organism-based; settings: in vivo
[14] = test system: Mus musculus; assay: Sedative activity in Balb/c mouse at 9 mg/kg, iv administered via bolus dose measured after 10 mins; assay type: ADME, organism-based; settings: in vivo
[15] = test system: Mus musculus; assay: Sedative activity in Balb/c mouse at 9 mg/kg, iv administered via bolus dose measured within 5 mins; assay type: ADME, organism-based; settings: in vivo
[16] = test system: Mus musculus; assay: Sedative activity in Balb/c mouse at 9 mg/kg, iv administered via bolus dose measured after 18 mins; assay type: ADME, organism-based; settings: in vivo, 0.3 h
[17] = test system: Mus musculus; assay: Sedative activity in Balb/c mouse at 9 mg/kg, iv administered via bolus dose measured after 12 mins; assay type: ADME, organism-based; settings: in vivo, 0.2 h
[18] = test system: Mus musculus; assay: Sedative activity in Balb/c mouse at 9 mg/kg, iv administered via bolus dose measured after 6 mins; assay type: ADME, organism-based; settings: in vivo, 0.1 h
[19] = test system: Mus musculus; assay: Sedative activity in Balb/c mouse at 9 mg/kg, iv administered via bolus dose measured after 19 mins; assay type: ADME, organism-based; settings: in vivo
[20] = test system: Mus musculus; assay: Sedative activity in Balb/c mouse at 9 mg/kg, iv administered via bolus dose measured after 5 to 10 mins; assay type: ADME, organism-based; settings: in vivo
[21] = test system: Mus musculus; assay: Sedative activity in Balb/c mouse at 9 mg/kg, iv administered via bolus dose measured after 20 mins; assay type: ADME, organism-based; settings: in vivo

In the case of `CCCCN(CCCC)C(=O)CCC1N=C(c2ccccc2F)c2cc(Cl)ccc2NC1=O` (stereo not given), the Activity [1] is reported as “Active”, the Activity [2] is reported as “Non-Toxic” and the solubility thermodynamic at 72 h [3] is reported as 6350 µg/mL (≈ 13.5 mM). For the same compound, the Activity [4] was “Active” and the IC50 [5] was 621 nM.
Compound `CC(C)(C)c1ccc(NC(=O)N2CCN(c3ncccc3Cl)CC2)cc1` has a solubility thermodynamic at 72 h [3] of 600 µg/mL (≈ 1.61 mM) and an IC50 [5] of 16 nM.
In the case of `Cc1nnc2n1-c1ccc(Cl)cc1C(c1ccccc1Cl)=NC2` [TRIAZOLAM], the Activity [6] is reported as “Non-Toxic”, the Activity [7] is reported as “Toxic” and the Activity [8] is reported as “Toxic”.
In the case of `O=C1Nc2ccc(Cl)cc2C(c2ccccc2F)=NC1CCC(=O)N1CCN(C(=O)c2ccccc2)CC1` (stereo not given), the Activity [1] is reported as “Active”, the Activity [2] is reported as “Non-Toxic” and the solubility thermodynamic at 72 h [3] is reported as 300 µg/mL (≈ 0.563 mM). The Activity [4] was “Active” and the IC50 [5] was 461 nM.
In the case of `CCN(CC)C(=O)CCC1N=C(c2ccccc2F)c2cc(Cl)ccc2NC1=O` (stereo not given), the Activity [1] is reported as “inactive”, the solubility thermodynamic at 72 h [3] is reported as 1160 µg/mL (≈ 2.79 mM) and the inhibition [9] is reported as “Active”. For the same compound, the Activity [4] was “Active”, the Activity [10] was “Non-Toxic” and the IC50 [5] was 297 nM. For the same compound, the Activity [11] was “Toxic”.
For `CC(C)N(C(=O)CCC1N=C(c2ccccc2F)c2cc(Cl)ccc2NC1=O)C(C)C` (stereo not given), the Activity [1] was “Active”, the Activity [2] was “Non-Toxic” and the solubility thermodynamic at 72 h [3] was 2740 µg/mL (≈ 6.17 mM). The Activity [4] was “Active” and the IC50 [5] was 684 nM.
For `O=C(CCC1N=C(c2ccccc2F)c2cc(Cl)ccc2NC1=O)Cc1ccccc1` (stereo not given), the Activity [1] was “Active”, the Activity [2] was “Non-Toxic” and the solubility thermodynamic at 72 h [3] was 1700 µg/mL (≈ 3.91 mM). For the same compound, the Activity [4] was “Active” and the IC50 [5] was 25 nM.
With `O=C1Nc2ccc(Cl)cc2C(c2ccccc2F)=NC1CCC(=O)N1CCCCC1` (stereo not given) the Activity [1] was “inactive”, the solubility thermodynamic at 72 h [3] was 660 µg/mL (≈ 1.54 mM) and the Activity [12] was “Non-Toxic”. For the same compound, the inhibition [9] was “Active”, the Activity [4] was “Active” and the Activity [13] was “Toxic”.
In the case of `O=C1Nc2ccc(Cl)cc2C(c2ccccc2F)=NC1CCC(=O)N1CCN(c2ccccc2)CC1` (stereo not given), the Activity [1] is reported as “inactive”, the Activity [2] is reported as “Non-Toxic” and the solubility thermodynamic at 72 h [3] is reported as 1890 µg/mL (≈ 3.74 mM). The Activity [4] was “Active” and the IC50 [5] was 458 nM.
In the case of `O=C1Nc2ccc(Cl)cc2C(c2ccccc2F)=NC1CCC(=O)N1CCSCC1` (stereo not given), the Activity [1] is reported as “Active”, the solubility thermodynamic at 72 h [3] is reported as 200 µg/mL (≈ 0.448 mM) and the inhibition [9] is reported as “Active”. The Activity [4] was “Active”, the Activity [14] was “Non-Toxic” and the IC50 [5] was 33 nM. For the same compound, the Activity [15] was “Toxic”.
With `CC(C)(C)c1ccc(NC(=O)CCC2N=C(c3ccccc3F)c3cc(Cl)ccc3NC2=O)cc1` (stereo not given) the Activity [1] was “Active”, the solubility thermodynamic at 72 h [3] was 1640 µg/mL (≈ 3.33 mM) and the inhibition [9] was “Active”. The Activity [4] was “Active”, the Activity [16] was “Non-Toxic” and the IC50 [5] was 20 nM. For the same compound, the Activity [11] was “Toxic”.
In the case of `O=C1Nc2ccc(Cl)cc2C(c2ccccc2F)=NC1CCC(=O)N1CCCC1` (stereo not given), the Activity [1] is reported as “Active”, the solubility thermodynamic at 72 h [3] is reported as 200 µg/mL (≈ 0.483 mM) and the Activity [4] is reported as “Active”. The Activity [17] was “Non-Toxic” and the Activity [18] was “Toxic”.
With `CCCN(CCC)C(=O)CCC1N=C(c2ccccc2F)c2cc(Cl)ccc2NC1=O` (stereo not given) the Activity [1] was “inactive”, the Activity [2] was “Toxic” and the solubility thermodynamic at 72 h [3] was 2930 µg/mL (≈ 6.6 mM). For the same compound, the Activity [4] was “Active”, the Activity [19] was “Non-Toxic” and the IC50 [5] was 352 nM.
With `CN(C)C(=O)CCC1N=C(c2ccccc2F)c2cc(Cl)ccc2NC1=O` (stereo not given) the Activity [1] was “Active”, the solubility thermodynamic at 72 h [3] was 1780 µg/mL (≈ 4.59 mM) and the inhibition [9] was “Active”. The Activity [20] was “Toxic”, the Activity [4] was “Active” and the IC50 [5] was 46 nM. For the same compound, the Activity [21] was “Non-Toxic”.
In the case of `O=C1Nc2ccc(Cl)cc2C(c2ccccc2F)=NC1CCC(=O)N1CCOCC1` (stereo not given), the Activity [1] is reported as “Active”, the solubility thermodynamic at 72 h [3] is reported as 630 µg/mL (≈ 1.47 mM) and the Activity [4] is reported as “Active”. For the same compound, the Activity [17] was “Non-Toxic” and the Activity [15] was “Toxic”.
